How the values were obtained:
corn = assay: Test C preemergence; type: in vivo, Zea mays
How it was run: (§1)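 Visual injury score versus untreated controls, 0 = no effect, 100 = complete control, taken 13 to 15 days after treatment in the greenhouse. Pre-emergence pots held loam/sand; post-emergence plants grew in sphagnum peat/vermiculite mix and were sprayed at the 1- to 4-leaf stage.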

barnyardgrass = assay: Test A preemergence; type: in vivo, Echinochloa crus-galli
How it was run: (§2)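 Visual 0–100 rating (100 = complete control) taken about 10 d post-treatment relative to untreated checks. Preemergence: directed soil spray on sown loam/sand pots. Postemergence: seedlings 2–10 cm, 1–2 leaf. Non-phytotoxic solvent formulation with surfactant.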

morningglory [1] = assay: Test C preemergence; type: in vivo, Ipomoea coccinea
How it was run: as §1

yellow nutsedge [2] = assay: Test C postemergence; type: in vivo, Cyperus esculentus; conditions: Cyperus, post-emergence
How it was run: as §1

yellow nutsedge [3] = assay: Test C preemergence; type: in vivo, Cyperus esculentus
How it was run: as §1

wild oat = assay: Test C postemergence; type: in vivo, Avena fatua; conditions: Avena fatua, post-emergence
How it was run: as §1

kochia = assay: Test C postemergence; type: in vivo, Kochia scoparia; conditions: Bassia scoparia, post-emergence
How it was run: as §1

rice = assay: Test B flooded paddy test; type: in vivo, Oryza sativa; conditions: Flood, 250 g ai/ha, 0 to 100 scale where 0 is no effect and 100 is complete control
How it was run: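 2-leaf stage plants; pots flooded to 3 cm, compound added to paddy water, depth maintained. Greenhouse 13–15 d. Visual rating vs untreated controls, 0 (no effect) to 100 (complete control); dash = no result.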

blackgrass = assay: Test C postemergence; type: in vivo, Alopecurus myosuroides; conditions: Alopecurus myosuroides, post-emergence
How it was run: as §1

morningglory [4] = assay: Test C postemergence; type: in vivo, Ipomoea coccinea; conditions: Ipomoea, post-emergence
How it was run: as §1

galium = assay: Test C preemergence; type: in vivo, Galium aparine; conditions: Galium, pre-emergence
How it was run: as §1

velvetleaf = assay: Test A postemergence; type: in vivo, Abutilon theophrasti; conditions: Abutilon theophrasti, post-emergence, 240 h
How it was run: as §2

oilseed rape = assay: Test C preemergence; type: in vivo, Brassica napus; conditions: preemergence
From the text: Seeds of plant species selected from blackgrass (Alopecurus myosuroides), Italian ryegrass (Lolium multiflorum), wheat, winter (winter wheat, Triticum aestivum), galium (catchweed bedstraw, Galium aparine), corn (Zea mays), large (Lg) crabgrass (Digitaria sanguinalis), giant foxtail (Setaria faberii), johnsongrass (Sorghum halepense), lambsquarters (Chenopodium album), morningglory (Ipomoea coccinea), yellow nutsedge (Cyperus esculentus), pigweed (Amaranthus retroflexus), ragweed (common ragweed, Ambrosia elatior), soybean (Glycine max), barnyardgrass (Echinochloa crus-galli), oilseed rape (Brassica napus), waterhemp (common waterhemp, Amaranthus rudis), kochia (Kochia scoparia), wild oat (Avena fatua), surinam grass (Brachiaria decumbens), foxtail, green (green foxtail, Setaria viridis), goosegrass (Eleusine indica), bromegrass, downy (downy bromegrass, Bromus tectorum), nightshade (eastern black nightshade, Solanum ptycanthum), cocklebur (common cocklebur, Xanthium strumarium), cupgrass, woolly (woolly cupgrass, Eriochloa villosa), bermudagrass (Cynodon dactylon), sunflower, (common oilseed sunflower, Helianthus annuus), Russian thistle (Salsola kali), and velvetleaf (Abutilon theophrasti) were planted into a blend of loam soil and sand and treated preemergence with test chemicals formulated in a non-phytotoxic solvent mixture which included a surfactant.
At the same time, plants selected from these crop and weed species and also barley, winter (winter barley, Hordeum vulgare), windgrass (Apera spica-venti), chickweed (common chickweed, Stellaria media), deadnettle (henbit deadnettle, Lamium amplexicaule), and canarygrass (littleseed canarygrass, Phalaris minor) were planted in pots containing Redi-Earth® planting medium (Scotts Company, 14111 Scottslawn Road, Marysville, Ohio 43041) comprising spaghnum peat moss, vermiculite, wetting agent and starter nutrients and treated with postemergence applications of test chemicals formulated in the same manner. Plants ranged in height from 2 to 18 cm (1- to 4-leaf stage) for postemergence treatments. Treated plants and controls were maintained in a greenhouse for 13 to 15 days, after which time all species were compared to controls and visually evaluated. Plant response ratings, summarized in Table C, are based on a scale of 0 to 100 where 0 is no effect and 100 is complete control. A dash (-) response means no test result.

[5] = 16 g ai/ha, preemergence, scale 0 to 100 (0 no effect, 100 complete control)
[6] = 62 g ai/ha, preemergence, scale 0 (no effect) to 100 (complete control)
[7] = 125 g ai/ha, preemergence, scale 0 (no effect) to 100 (complete control)

Clc1cnc(Oc2ccccc2-n2cc(Br)cn2)nc1 [Compound 7, 2-[2-(4-bromo-1H-pyrazol-1-yl)phenoxy]-5-chloropyrimidine]
plant injury at 62 g/ha (corn; Zea mays, pre-emergence, 62 g ai/ha, preemergence, scale 0 (no effect) to 100 (complete control), read-out: Corn plant response rating): 5% | plant injury at 125 g/ha (corn; Zea mays, pre-emergence, 125 g ai/ha, preemergence, scale 0 (no effect) to 100 (complete control), read-out: Corn plant response rating): 5% | plant injury at 250 g/ha (corn; Zea mays, pre-emergence, 250 g ai/ha, preemergence, scale 0 (no effect) to 100 (complete control), read-out: Corn plant response rating): 5% | Corn plant response rating (crop injury, 0 = no effect, 100 = complete kill) at 31 g/ha (corn; Zea mays, pre-emergence, Preemergence, 31 g ai/ha, scale 0 to 100, 0 no effect, 100 complete control): 0% | pest or weed control at 125 g/ha (barnyardgrass; Echinochloa crus-galli, pre-emergence, 240 h, 125 g ai/ha, 0 to 100 scale where 0 is no effect and 100 is complete control, read-out: Barnyardgrass plant response rating): 80% | pest or weed control at 500 g/ha (barnyardgrass; Echinochloa crus-galli, pre-emergence, 240 h, 500 g ai/ha, 0 to 100 scale, 0 no effect, 100 complete control, approx. 10 days, read-out: Barnyardgrass plant response rating): 100% | pest or weed control at 62 g/ha (morningglory [1]; Ipomoea, pre-emergence, 62 g ai/ha, preemergence, scale 0 (no effect) to 100 (complete control), read-out: Morningglory plant response rating): 0% | pest or weed control at 125 g/ha (morningglory [1]; Ipomoea, pre-emergence, 125 g ai/ha, preemergence, scale 0 (no effect) to 100 (complete control), read-out: Morningglory plant response rating): 10% | pest or weed control at 250 g/ha (morningglory [1]; Ipomoea, pre-emergence, 250 g ai/ha, preemergence, scale 0 (no effect) to 100 (complete control), read-out: Morningglory plant response rating): 40% | pest or weed control at 31 g/ha (morningglory [1]; Ipomoea, pre-emergence, Preemergence, 31 g ai/ha, scale 0 to 100, 0 no effect, 100 complete control, read-out: Plant response rating, Morningglory): 0% | pest or weed control at 125 g/ha (yellow nutsedge [2]; 125 g ai/ha, postemergence, read-out: Plant response rating (0 to 100), Nutsedge, Yellow): 15% | pest or weed control at 250 g/ha (yellow nutsedge [2]; 250 g ai/ha, postemergence, read-out: Plant response rating (0 to 100), Nutsedge, Yellow): 20% | pest or weed control at 31 g/ha (yellow nutsedge [2]; Postemergence, 31 g ai/ha, scale 0 to 100 (0 no effect, 100 complete control), 13 to 15 days, read-out: Plant response rating, Nutsedge, Yellow): 10% | pest or weed control at 62 g/ha (yellow nutsedge [2]; Postemergence, 62 g ai/ha, scale 0 to 100 (0 no effect, 100 complete control), read-out: Plant response rating, Nutsedge, Yellow): 15% | pest or weed control at 62 g/ha (yellow nutsedge [3]; Cyperus, pre-emergence, 62 g ai/ha, preemergence, scale 0 (no effect) to 100 (complete control), read-out: Nutsedge, Yellow plant response rating): 0% | pest or weed control at 125 g/ha (yellow nutsedge [3]; Cyperus, pre-emergence, 125 g ai/ha, preemergence, scale 0 (no effect) to 100 (complete control), read-out: Nutsedge, Yellow plant response rating): 15% | pest or weed control at 250 g/ha (yellow nutsedge [3]; Cyperus, pre-emergence, 250 g ai/ha, preemergence, scale 0 (no effect) to 100 (complete control), read-out: Nutsedge, Yellow plant response rating): 15% | pest or weed control at 31 g/ha (yellow nutsedge [3]; Cyperus, pre-emergence, Preemergence, 31 g ai/ha, scale 0 to 100, 0 no effect, 100 complete control, read-out: Plant response rating, Nutsedge, Yellow): 0% | pest or weed control at 125 g/ha (wild oat; 125 g ai/ha, postemergence, read-out: Plant response rating (0 to 100), Oat, Wild): 35% | pest or weed control at 250 g/ha (wild oat; 250 g ai/ha, postemergence, read-out: Plant response rating (0 to 100), Oat, Wild): 55% | pest or weed control at 31 g/ha (wild oat; Postemergence, 31 g ai/ha, scale 0 to 100 (0 no effect, 100 complete control), 13 to 15 days, read-out: Plant response rating, Oat, Wild): 5% | pest or weed control at 62 g/ha (wild oat; Postemergence, 62 g ai/ha, scale 0 to 100 (0 no effect, 100 complete control), read-out: Plant response rating, Oat, Wild): 35% | pest or weed control at 125 g/ha (kochia; 125 g ai/ha, postemergence, read-out: Plant response rating (0 to 100), Kochia): 100% | pest or weed control at 250 g/ha (kochia; 250 g ai/ha, postemergence, read-out: Plant response rating (0 to 100), Kochia): 100% | pest or weed control at 31 g/ha (kochia; Postemergence, 31 g ai/ha, scale 0 to 100 (0 no effect, 100 complete control), 13 to 15 days, read-out: Plant response rating, Kochia): 98% | pest or weed control at 62 g/ha (kochia; Postemergence, 62 g ai/ha, scale 0 to 100 (0 no effect, 100 complete control), read-out: Plant response rating, Kochia): 98% | plant injury at 250 g/ha (rice; Oryza sativa, read-out: Plant response rating, Rice): 20% | pest or weed control at 125 g/ha (blackgrass; 125 g ai/ha, postemergence, read-out: Plant response rating (0 to 100), Blackgrass): 45% | pest or weed control at 250 g/ha (blackgrass; 250 g ai/ha, postemergence, read-out: Plant response rating (0 to 100), Blackgrass): 50% | pest or weed control at 31 g/ha (blackgrass; Postemergence, 31 g ai/ha, scale 0 to 100 (0 no effect, 100 complete control), 13 to 15 days, read-out: Plant response rating, Blackgrass): 5% | pest or weed control at 62 g/ha (blackgrass; Postemergence, 62 g ai/ha, scale 0 to 100 (0 no effect, 100 complete control), read-out: Plant response rating, Blackgrass): 10% | pest or weed control at 125 g/ha (morningglory [4]; 125 g ai/ha, postemergence, read-out: Plant response rating (0 to 100), Morningglory): 95% | pest or weed control at 31 g/ha (morningglory [4]; Postemergence, 31 g ai/ha, scale 0 to 100 (0 no effect, 100 complete control), 13 to 15 days, read-out: Plant response rating, Morningglory): 75% | pest or weed control at 62 g/ha (morningglory [4]; Postemergence, 62 g ai/ha, scale 0 to 100 (0 no effect, 100 complete control), read-out: Plant response rating, Morningglory): 80% | pest or weed control at 62 g/ha (galium; 62 g ai/ha, preemergence, scale 0 (no effect) to 100 (complete control), read-out: Galium plant response rating): 100% | pest or weed control at 125 g/ha (galium; 125 g ai/ha, preemergence, scale 0 (no effect) to 100 (complete control), read-out: Galium plant response rating): 100% | pest or weed control at 250 g/ha (galium; 250 g ai/ha, preemergence, scale 0 (no effect) to 100 (complete control), read-out: Galium plant response rating): 100% | pest or weed control at 31 g/ha (galium; Preemergence, 31 g ai/ha, scale 0 to 100, 0 no effect, 100 complete control, read-out: Plant response rating, Galium): 85% | pest or weed control at 125 g/ha (velvetleaf; 125 g ai/ha, 0 to 100 scale where 0 is no effect and 100 is complete control, read-out: Plant response rating, Velvetleaf): 100% | pest or weed control at 500 g/ha (velvetleaf; 500 g ai/ha, 0 to 100 scale, 0 no effect, 100 complete control, read-out: Plant response rating Velvetleaf): 100%

N#Cc1cnn(-c2c(CF)cccc2Oc2ncc(F)cn2)c1 [Compound 151]
Corn plant response rating (corn; [5]): 0 | Corn plant response rating (corn; [6]): 15 | Corn plant response rating (corn; [7]): 70 | Plant response rating, Corn (corn; Preemergence, 31 g ai/ha, scale 0 to 100, 0 no effect, 100 complete control): 5 | Plant response rating, Barnyardgrass (barnyardgrass; 31 g ai/ha, 0 to 100 scale where 0 is no effect and 100 is complete control, visual, approximately 10 days): 20 | Plant response rating, Barnyardgrass (barnyardgrass; 125 g ai/ha, 0 to 100 scale where 0 is no effect and 100 is complete control): 60 | Morningglory plant response rating (morningglory [1]; [5]): 0 | Morningglory plant response rating (morningglory [1]; [6]): 10 | Morningglory plant response rating (morningglory [1]; [7]): 25 | Nutsedge, Yellow plant response rating (yellow nutsedge [3]; [5]): 0 | Nutsedge, Yellow plant response rating (yellow nutsedge [3]; [6]): 5 | Nutsedge, Yellow plant response rating (yellow nutsedge [3]; [7]): 25 | Plant response rating, Rice (rice): 20 | Oilseed Rape plant response rating (oilseed rape; 16 g ai/ha, scale 0 to 100 (0 no effect, 100 complete control)): 95 | Oilseed Rape plant response rating (oilseed rape; 62 g ai/ha, scale 0 (no effect) to 100 (complete control)): 100 | Oilseed Rape plant response rating (oilseed rape; 125 g ai/ha, scale 0 (no effect) to 100 (complete control)): 100
